Assay results reported in patent US20190223437A1, “ACTIVE COMPOUND COMBINATIONS COMPRISING A 5-SUBSTITUTED IMIDAZOLE DERIVATIVE” (BAYER CROPSCIENCE AKTIENGESELLSCHAFT, priority 2016, published 2019).
Marks after values point to notes of the source that are not given here.

Key:
[1] = Example G: in vivo ecotoxicity screening test on fish (Danio rerio); conditions: Danio rerio, in vivo, other: exposure of embryos in water containing the compound
Method: with ECxi the Effect Concentration (EC) of each chemical i (in ppm) causing x % effect on the ecotoxicity test endpoint.
For each compound combination, the predicted ECx value is calculated. It is then compared to an experimentally measured value. The ratio of predicted versus measured effect for the combination (thereafter called the Model Deviation Ratio or MDR) is then calculated.
The environmental effect of the compound combinations was measured experimentally in laboratory ecotoxicity screening studies with fish (Danio rerio). […] Mortality was recorded after 48 h and 96 h for each tested concentration and a reference control. […] Then, the MDR values were calculated.
This concentrate is then diluted with water to the desired a.i. concentration, leading to a maximal solvent concentration of 0.5%. by weight The compounds alone and the combinations were tested for five increasing concentrations comprised between 0.01 and 1000 ppm (mg/1) a.i., (e.g. 0.1, 1.0, 10 and 100 ppm a.i). For the combinations, compounds A and B were mixed in a weight ratio of 5:1 to 1:5 and five increasing concentrations were tested for each ratio.

[2] = system: causal agent of soybean rust (Phakopsora pachyrhizi); test: Example C: in vivo preventive test on Phakopsora test (soybeans); conditions: compound alone
Alternaria solani = test: Example A: in vivo preventive test on Alternaria test (tomatoes); conditions: compound alone, evaluated 3 days after inoculation
Method: (§1) The test is evaluated 3 days after the inoculation.

Colletotrichum coccodes = test: Example B: in vivo preventive test on Colletotrichum test (tomatoes); conditions: compound alone
Method: as §1

[3] = Measurement of Log P values by HPLC on reversed phase columns (EEC directive 79/831 Annex V.A8); assay type: physicochemical; conditions: for chromatographic logP: reversed phase HPLC column, method [a]: LC-UV, acidic range, 0.1% formic acid in water and acetonitrile as eluent, Table 1, compounds of formula (I)
Method: Measurement of Log P values was performed according to EEC directive 79/831 Annex V.A8 by HPLC (High Performance Liquid Chromatography) on reversed phase columns with the following methods:

Molecule: CC(C)(C)[C@@H](O)[C@@H](Cc1ccc(Cl)cc1)n1cncn1 (racemic) [Example 1.015, paclobutrazol]
- LC50 at 48 h [1]: 99.8 µg/mL
- LC50 at 96 h [1]: 56.5 µg/mL

Molecule: O=C(NCCc1ncc(C(F)(F)F)cc1Cl)c1ccccc1C(F)(F)F [2.005 fluopyram]
- Efficacy in % found ([2]; 5 ppm a.i.): 0%
- Efficacy in % found ([2]; 10 ppm a.i.): 0%
- Efficacy in % found ([2]; 20 ppm a.i.): 0%

Molecule: N#Cc1c(Cl)c(Cl)c(Cl)c(C#N)c1Cl [5.004 chlorothalonil, chlorothalonil]
- Efficacy in % found (Alternaria solani; 12.5 ppm a.i.): 0%
- Efficacy in % found (Alternaria solani; 25 ppm a.i.): 0%
- Efficacy in % found (Alternaria solani; 50 ppm a.i.): 15%
- Efficacy in % found ([2]; 12.5 ppm a.i.): 0%
- Efficacy in % found ([2]; 25 ppm a.i.): 0%
- Efficacy in % found ([2]; 50 ppm a.i.): 30%
- Efficacy in % found (Colletotrichum coccodes; 12.5 ppm a.i.): 0%
- Efficacy in % found (Colletotrichum coccodes; 25 ppm a.i.): 0%
- Efficacy in % found (Colletotrichum coccodes; 50 ppm a.i.): 0%

Molecule: CC(C)C1CCC(Cc2ccc(Cl)cc2)C1(O)Cn1cncn1 (centres unmarked) [Example 1.012, ipconazole]
- LC50 at 48 h [1]: 13.8 µg/mL
- LC50 at 96 h [1]: 6.57 µg/mL

Molecule: OC(Cc1ccccc1Cl)(Cn1nc[nH]c1=S)C1(Cl)CC1 (centres unmarked) [Example 1.018, prothioconazole]
- LC50 at 48 h [1]: 9.49 µg/mL
- LC50 at 96 h [1]: 3.16 µg/mL

Molecule: CC(C)(C)C(O)(CCc1ccc(Cl)cc1)Cn1cncn1 (centres unmarked) [Example 1.021, tebuconazole]
- LC50 at 48 h [1]: 19.7 µg/mL
- LC50 at 96 h [1]: 19.7 µg/mL

Molecule: CC(C)c1ccc(Cl)cc1CN(C(=O)c1c(C(F)F)nn(C)c1F)C1CC1 [Example 2.038, N-(5-chloro-2-isopropylbenzyl)-N-cyclopropyl-3-(difluoromethyl)-5-fluoro-1-methyl-1H-pyrazole-4-carboxamide]
- Efficacy in % found ([2]; 1 ppm a.i.): 0%
- Efficacy in % found ([2]; 2 ppm a.i.): 0%
- Efficacy in % found ([2]; 4 ppm a.i.): 0%
- LC50 at 48 h [1]: 0.51 µg/mL
- LC50 at 96 h [1]: 0.35 µg/mL

Molecule: CON=C(C(=O)OC)c1ccccc1CON=C(C)c1cccc(C(F)(F)F)c1 [Example 3.020, trifloxystrobin]
- LC50 at 48 h [1]: 0.4 µg/mL
- LC50 at 96 h [1]: 0.24 µg/mL

Molecule: O=C(Nc1ccccc1)N(Cc1ccc(Cl)cc1)C1CCCC1 [Example 4.005, pencycuron]
- LC50 at 48 h [1]: > 200 µg/mL
- LC50 at 96 h [1]: > 200 µg/mL

Molecule: N#Cc1c[nH]cc1-c1cccc2c1OC(F)(F)O2 [Example 13.001, fludioxonil]
- LC50 at 48 h [1]: 0.91 µg/mL
- LC50 at 96 h [1]: 0.89 µg/mL

Molecule: O=C(Cc1ccccc1)N/C(=N\OCC1CC1)c1c(C(F)(F)F)ccc(F)c1F [Example 15.008, cyflufenamid]
- LC50 at 48 h [1]: 9.71 µg/mL
- LC50 at 96 h [1]: 5.2 µg/mL

Molecule: CC(C)C(O)(Cc1ccc(F)c(F)c1F)Cn1cncc1C#N (centres unmarked) [Example I-105]
- LogP [3]: 2.78^[a]

Molecule: Cc1ccc(CC(O)(Cn2cncc2Cl)C2(Cl)CC2)c(F)c1 (centres unmarked) [Example I-108]
- LogP [3]: 2.34^[a]

Molecule: N#Cc1cncn1CC(O)(Cc1ccc(F)c(F)c1)C1(Cl)CC1 (centres unmarked) [Example I-109]
- LogP [3]: 2.78^[a]

Molecule: OC(Cc1ccc(F)c(F)c1)(Cn1cncc1Cl)C1(Cl)CC1 (centres unmarked) [Example I-110]
- LogP [3]: 2.23^[a]

Molecule: NC(=O)c1cncn1CC(O)(Cc1ccc(Cl)cc1F)C1CC1 (centres unmarked) [Example I-116]
- LogP [3]: 1.49^[a]

Molecule: N#Cc1cncn1CC(O)(Cc1ccc(Cl)cc1F)C1CCC1 (centres unmarked) [Example I-117]
- LogP [3]: 3.13^[a]

Molecule: CC(C)C(O)(Cc1ccc(Cl)cc1F)Cn1cncc1C#N (centres unmarked) [Example I-118]
- LogP [3]: 2.91^[a]

Molecule: COC(Cc1ccc(Cl)cc1F)(Cn1cncc1C#N)C1CC1 (centres unmarked) [Example I-121]
- LogP [3]: 3.31^[a]

Molecule: CCOC(Cc1ccc(Cl)cc1F)(Cn1cncc1Cl)C1(Cl)CC1 (centres unmarked) [Example I-122]
- LogP [3]: 3.10^[a]

Molecule: C=CCOC(Cc1ccc(Cl)cc1F)(Cn1cncc1Cl)C1(Cl)CC1 (centres unmarked) [Example I-123]
- LogP [3]: 3.31^[a]

Molecule: CC(C)C(O)(Cc1ccc(F)cc1F)Cn1cncc1C#N (centres unmarked) [Example I-128]
- LogP [3]: 2.52^[a]

Molecule: N#Cc1cncn1C[C@](O)(Cc1ccccc1F)C1(Cl)CC1 [Example I-132, 1-[(2R)-2-(1-chlorocyclopropyl)-3-(2-fluorophenyl)-2-hydroxypropyl]-1H-imidazole-5-carbonitrile]
- chromatographic logP [3]: 2.59

Molecule: N#Cc1cncn1C[C@@](O)(Cc1ccccc1F)C1(Cl)CC1 [Example I-133, 1-[(2S)-2-(1-chlorocyclopropyl)-3-(2-fluorophenyl)-2-hydroxypropyl]-1H-imidazole-5-carbonitrile]
- chromatographic logP [3]: 2.59

Molecule: O=C(Cc1ccccc1F)c1cncn1CC(O)(Cc1ccccc1F)C1(Cl)CC1 (centres unmarked) [Example I-134]
- LogP [3]: 3.60^[a]

Molecule: CCOC(=O)c1cncn1CC(O)(Cc1ccccc1F)C1(Cl)CC1 (centres unmarked) [Example I-135]
- LogP [3]: 2.73^[a]

Molecule: N#Cc1cncn1CC(O)(Cc1ccccc1F)C1CCC1 (centres unmarked) [Example I-137]
- LogP [3]: 2.46^[a]

Molecule: CC(C)(C)C(O)(Cc1ccccc1F)Cn1cncc1C#N (centres unmarked) [Example I-138]
- LogP [3]: 2.73^[a]

Molecule: CC(C)C(O)(Cc1ccccc1F)Cn1cncc1C#N (centres unmarked) [Example I-139]
- LogP [3]: 2.40^[a]

Molecule: Cc1cccc(CC(O)(Cn2cncc2Cl)C2(Cl)CC2)c1F (centres unmarked) [Example I-143]
- LogP [3]: 2.35^[a]

Molecule: OC(Cc1cccc(F)c1F)(Cn1cncc1Cl)C1(Cl)CC1 (centres unmarked) [Example I-147]
- LogP [3]: 2.17^[a]

Molecule: N#Cc1cncn1CC(O)(Cc1cccc(F)c1F)C1CCC1 (centres unmarked) [Example I-148]
- LogP [3]: 2.57^[a]

Molecule: CC(C)C(O)(Cc1cccc(F)c1F)Cn1cncc1C#N (centres unmarked) [Example I-149]
- LogP [3]: 2.47^[a]

Molecule: N#Cc1cncn1CC(O)(Cc1ccnc(Cl)c1F)C1(Cl)CC1 (centres unmarked) [Example I-152]
- LogP [3]: 2.25^[a]

Molecule: N#Cc1cncn1CC(O)(Cc1ccc(F)cc1Cl)C1(Cl)CC1 (centres unmarked) [Example I-154]
- LogP [3]: 3.00^[a]

Molecule: Cc1cc(F)ccc1CC(O)(Cn1cncc1Cl)C1(Cl)CC1 (centres unmarked) [Example I-155]
- LogP [3]: 2.46^[a]

Molecule: N#Cc1cncn1CC(O)(Cc1cc(F)cc(F)c1)C1(Cl)CC1 (centres unmarked) [Example I-156]
- LogP [3]: 2.86^[a]

Molecule: N#Cc1cncn1CC(O)(Cc1ccc(F)cc1)C1(Cl)CC1 (centres unmarked) [Example I-157]
- LogP [3]: 2.75^[a]

Molecule: OC(Cc1ccc(F)cc1)(Cn1cncc1Cl)C1(Cl)CC1 (centres unmarked) [Example I-158]
- LogP [3]: 2.13^[a]

Molecule: N#Cc1cncn1CC(O)(Cc1ccc(F)cc1)C1(Cl)CCC1 (centres unmarked) [Example I-159]
- LogP [3]: 2.98^[a]

Molecule: N#Cc1cncn1CC(O)(Cc1ccc(F)cc1)C1CCC1 (centres unmarked) [Example I-160]
- LogP [3]: 2.56^[a]

Molecule: N#Cc1cncn1CC(O)(Cc1ccc(F)cc1)C1CCCC1 (centres unmarked) [Example I-161]
- LogP [3]: 2.82^[a]

Molecule: CC(C)C(O)(Cc1ccc(F)cc1)Cn1cncc1C#N (centres unmarked) [Example I-162]
- LogP [3]: 2.44^[a]

Molecule: N#Cc1cncn1CC(O)(Cc1ccncc1F)C1(Cl)CC1 (centres unmarked) [Example I-163]
- LogP [3]: 1.62^[a]

Molecule: OC(Cc1ccncc1F)(Cn1cncc1Cl)C1(Cl)CC1 (centres unmarked) [Example I-164]
- LogP [3]: 1.46^[a]

Molecule: N#Cc1cncn1CC(O)(Cc1cc(F)ncc1Cl)C1(Cl)CC1 (centres unmarked) [Example I-165]
- LogP [3]: 2.38^[a]

Molecule: N#Cc1cncn1CC(O)(Cc1ccccc1I)C1(Cl)CC1 (centres unmarked) [Example I-166]
- LogP [3]: 3.13^[a]

Molecule: N#Cc1cncn1CC(O)(Cc1ccnnc1Cl)C1(Cl)CC1 (centres unmarked) [Example I-168]
- LogP [3]: 1.59^[a]

Molecule: O=C(Cc1ccccc1)c1cncn1CC(O)(Cc1ccccc1)C1(Cl)CC1 (centres unmarked) [Example I-169]
- LogP [3]: 3.56^[a]

Molecule: propineb [5.018 propineb]
- Efficacy in % found (Alternaria solani; 12.5 ppm a.i.): 0%
- Efficacy in % found (Alternaria solani; 25 ppm a.i.): 8%
- Efficacy in % found (Alternaria solani; 50 ppm a.i.): 50%
- Efficacy in % found ([2]; 12.5 ppm a.i.): 0%
- Efficacy in % found ([2]; 25 ppm a.i.): 0%
- Efficacy in % found ([2]; 50 ppm a.i.): 40%
